Several values for one entry are separate records, joined by “and”; a condition that tells them apart may be missing. Equal entries are not always repeated.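 Results reflect a 48-hour exposure of cells in 96-well plates to compound at five concentrations. At the GI50, growth is halved. TGI denotes the concentration required for complete inhibition of growth.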
Legend:
Assay in all cases: growth of human tumour cells (NCI), 48 h
[1] = system: A498 renal
[2] = system: BT-549 breast
[3] = system: CAKI-1 renal
[4] = system: HCT-116 colon
[5] = system: IGROV1 ovarian
[6] = system: NCI-H226 lung
[7] = system: OVCAR-5 ovarian
[8] = system: SF-539 CNS
[9] = system: SNB-75 CNS
[10] = system: UACC-257 melanoma

Row | SMILES | GI50 [1] [µM] | TGI [1] [µM] | GI50 [2] [µM] | TGI [2] [µM] | GI50 [3] [µM] | TGI [3] [µM] | GI50 [4] | TGI [4] [µM] | GI50 [5] [µM] | TGI [5] [µM] | GI50 [6] [µM] | TGI [6] [µM] | GI50 [7] [µM] | TGI [7] [µM] | GI50 [8] [µM] | TGI [8] [µM] | GI50 [9] [µM] | TGI [9] [µM] | GI50 [10] [µM] | TGI [10] [µM]
1 | Cn1nc(C(F)(F)F)cc1-c1c[nH]c(OCc2ccc(Cl)cc2)c(-c2ccc(Cl)c(C(F)(F)F)c2)c1=O | 0.446 | 1.31 | 1.04 | 3.31 | 0.917 | 2.91 | 0.927 µM | 4.51 | 1.74 | > 40.5 | 1.26 | 4.27 | 1.71 | > 32.8 | 1.24 | 3.96 | 0.872 | 2.72 | 0.919 | 3.6
2 | CCCCNC(=O)C1C(=O)N(CCCC)C(=O)/C1=N\N (centres undefined) | – | > 100 | – | – | – | > 100 | – | > 100 | – | > 100 | – | > 100 | – | > 100 | – | > 100 | – | > 100 | – | > 100
3 | O=c1c2ccccc2nc(/C=C(\O)c2ccncc2)n1-c1ccc(Cl)cc1 | – | > 100 | – | – | – | > 100 | – | > 100 | – | – | – | > 100 | – | > 100 | – | – | – | 61.7 | – | > 100
4 | COCCNc1ccc2c3c(cccc13)C(=O)N(CCN(C)C)C2=O | 6.16 | 21.5 | 10.7 | > 25 | 4.49 | 10.1 | 6.65 µM | > 25 | – | – | 5.01 | 17 | 9.41 | > 25 | 7.04 | > 25 | 15.9 | > 25 | 7.23 | > 25
5 | O=C(O)COc1ccc(C(=O)/C(SS/C(C(=O)c2ccc(OCC(=O)O)c(Cl)c2Cl)=C2\C=C(c3ccc(Cl)cc3)SS2)=C2/C=C(c3ccc(Cl)cc3)SS2)c(Cl)c1Cl | – | > 100 | – | – | – | > 100 | – | 22.8 | – | 76.2 | – | 18.7 | – | > 100 | – | 17.9 | – | 31 | – | > 100
6 | COc1ccc(Cn2cc3c(c2-c2ccccc2)CCc2cnoc2-3)cc1OC | 0.253 | 3.27 | – | – | 0.537 | > 100 | 0.482 µM | > 100 | 1.59 | > 100 | 5.75 | > 100 | 6.2 | > 100 | 1.02 | 5.6 | 0.669 | 5.26 | 60.4 | > 100
7 | O=C(c1ccccc1)C(c1ccccc1)C1(O)C(=O)Nc2ccc([N+](=O)[O-])cc21 (centres undefined) | – | > 100 | – | – | – | > 100 | – | > 100 | – | > 100 | – | > 100 | – | > 100 | – | > 100 | – | > 100 | – | –
8 | N/C(=N/N=C/c1ccccc1)N/N=C\c1ccccc1 | 6.03 | > 100 | 7.2 | 46.4 | 5.02 | > 100 | 4.5 µM | > 100 | 8.6 | > 100 | 12.3 | > 100 | 19.4 | > 100 | – | – | 9.67 | > 100 | 7.5 | 27.6
9 | O=C1[C@@H]2C(c3ccccc3[N+](=O)[O-])=[N+](c3ccccc3)O[C@@H]2C(=O)N1c1ccc(Cc2ccc(N3C(=O)[C@H]4C(c5ccccc5[N+](=O)[O-])=[N+](c5ccccc5)O[C@H]4C3=O)cc2)cc1 | – | > 100 | – | – | – | > 100 | – | > 100 | – | > 100 | – | > 100 | – | > 100 | – | > 100 | – | > 100 | – | > 100
10 | CCOC(=O)NC/C=C/COC1CCCCO1 (centres undefined) | – | > 100 | – | – | – | > 100 | – | > 100 | – | > 100 | – | > 100 | – | – | – | > 100 | – | > 100 | – | > 100
11 | Nc1nc(Cl)cc(NCC(O)CO)n1 (centres undefined) | – | > 100 | – | – | – | – | – | > 100 | – | > 100 | – | > 100 | – | > 100 | – | > 100 | – | > 100 | – | > 100
12 | O=C(OC1CCC2OOC1O2)c1ccc([N+](=O)[O-])cc1 (centres undefined) | – | > 100 | – | – | – | > 100 | – | > 100 | – | > 100 | – | > 100 | – | > 100 | – | > 100 | – | > 100 | – | > 100
13 | CCC(O)C1Cc2c(C)cc3c(c2O1)C(=O)c1ccccc1C3=O (centres undefined) | – | 70.3 | – | – | – | > 100 | – | > 100 | – | > 100 | – | > 100 | – | > 100 | – | – | – | > 100 | – | > 100
14 | COc1cc2c(c(OC)c1OC)-c1ccc(OC)c(=O)cc1[C@@H](NC(C)=O)CC2 | – | – | – | > 70.9 | – | – | < 0.01 µM and 0.0625 µM | – | – | > 100 | – | – | > 578 | > 625 | – | – | – | – | – | –
15 | O=C(/C(=C/c1ccc([N+](=O)[O-])cc1)SCc1ccc(Cl)cc1)c1ccc(F)cc1 | 13.9 | 38.4 | 2.06 | 4.56 | – | – | 1.39 µM | 2.92 | 3.93 | 22.3 | 9.67 | > 41.6 | 3 | 12.1 | 3.47 | 12.6 | 16.1 | 65.6 | 11.5 | 26.1
16 | CCOC(=O)C(N=C(c1ccccc1)c1ccccc1)N(C(=O)OC(C)(C)C)C(=O)OC(C)(C)C (centres undefined) | – | – | – | – | – | > 100 | – | > 100 | – | > 100 | – | > 100 | – | > 100 | – | > 100 | – | > 100 | – | > 100
17 | CCCCCCn1c(-c2ccc(C(=O)O/N=C(\N)c3ccc4ccccc4c3)cc2)nc(-c2ccccc2)c1-c1ccccc1 | 2.09 | > 26 | 8 | > 100 | 2.65 | 55.1 | 4.2 µM | > 100 | – | – | 27.3 | > 100 | > 100 | > 100 | 12.5 | > 100 | 2.18 | 20.1 | > 100 | > 100
18 | CCOC(=O)Cc1csc(Nc2ccc(OCC)cc2)n1 | – | > 100 | – | – | – | – | – | > 100 | – | > 100 | – | > 100 | – | – | – | > 100 | – | > 100 | – | > 100
19 | O=C(NCc1cccnc1)C1COc2cc(-c3cc(=O)c4ccccc4o3)ccc2O1 (centres undefined) | – | 99.7 | – | – | – | > 84.3 | – | > 100 | – | > 100 | – | > 57.1 | – | > 100 | – | 16.4 | – | 28.8 | – | > 100
